Paper PMC11378297, “Discovery and Profiling of New Multimodal Phenylglycinamide Derivatives as Potent Antiseizure and Antinociceptive Drug Candidates” (ACS Chemical Neuroscience, 2024)

What was measured:
[1] = system: fast voltage-gated sodium channels in rat prefrontal cortex pyramidal neurons; experiment: patch-clamp of fast voltage-gated sodium currents in prefrontal cortex pyramidal neurons; format: cell-based; settings: 10 μM, control = 1.0, n = 5
Excerpt: Figure 9 Compounds (R)-31 and (R)-32 inhibit fast voltage-gated sodium currents in prefrontal cortex pyramidal neurons. (A) Example sodium current recordings in control (black trace), after application of (R)-31 (blue trace) and after wash-out (red trace). Current traces were evoked by a rectangular voltage-step. (B) Influence of (R)-31 on sodium current is shown on an example neuron. Current traces were evoked once every 10 s. […] (C) Averaged, normalized maximal sodium current amplitudes in control, in the presence of (R)-31 and after wash-out. […] (D) Example sodium current recordings in control (black trace), after application of (R)-32 (blue trace) and after wash-out (red trace). Current traces were evoked by a rectangular voltage-step. (E) Influence of (R)-32 on sodium current is shown on an example neuron. Current traces were evoked once every 10 s. […] (F) Averaged, normalized maximal sodium current amplitudes in control, in the presence of (R)-32 and after wash-out.
Patch-clamp studies were carried out in prefrontal cortex pyramidal neurons. The methodology of slice preparation, preparation of dispersed cortical neurons, and sodium currents recording technique were the same as in our previous study.[99]

[2] = system: OXPT-induced tactile allodynia, mice; experiment: oxaliplatin (OXPT)-induced peripheral neuropathy, von Frey test
Protocol: In experimental conditions, these mechanisms trigger mechanical allodynia, which can be observed as a decrease in the pain threshold, as assessed by the von Frey test.[37]
We tested (R)-31 at the doses of 50, 75, and 100 mg/kg (Figure 7C).
The experimental groups consisted of 10 adult male Albino Swiss mice (CD-1, 18–25 g). Each animal was tested only once. Immediately after the assay, the animals were sacrificed by cervical dislocation. Behavioral measurements were observed by trained observers. […] The tested materials were administered intraperitoneally half an hour before the test, after being suspended in a 1% aqueous solution of Tween-80. 30 min before the test, the animals in the control group (negative control) received an appropriate dose of the vehicle (Tween-80, 1% aqueous solution, i.p.).

[3] = system: PTZ-induced kindling, mice; experiment: PTZ-induced kindling model; format: in vivo, mouse
Protocol: We investigated the impact of lead compound (R)-32 on PTZ-induced kindling in mice to further assess its antiseizure potential (Figure 3). […] The PTZ-induced kindling model is widely recognized as a useful method to induce chronic increase in susceptibility to epileptic seizures.
Figure 3 Effect of repeated treatment with (R)-32 in PTZ-induced kindling model in mice. […] Data are presented as means of seizure severity (n = 10–15 animals). Statistical significance was evaluated by a mixed effects model for repeated measures followed by Tukey’s post hoc test: **p < 0.01, […] vs control group (GraphPad Prism 8.4.3).
The procedure was performed as described in detail in our previous studies.[88],[89] […] Seizures were induced three times a week by i.p. administration of PTZ at a subconvulsive dose of 40 mg/kg. […] The seizure severity was scored using the modified Racine’s scale. […] The locomotor activity test, the elevated plus maze test, and the FST were performed 24 h after the last PTZ injection, according to the methods described in detail elsewhere. After completion of behavioral tests, animals were sacrificed. Hippocampi and cortices were dissected from the brains, frozen, and stored at −80 °C until assay. Following each PTZ injection, the mean seizure severity scores were determined for each experimental group. A mixed effects model for repeated measurements was used for analysis, along with Tukey’s post hoc test. The percentage of fully kindled mice was compared using Fisher’s exact probability test.

[4] = system: mature-BDNF (mBDNF) expression; experiment: mBDNF expression in hippocampus and cortex of PTZ-kindled mice (Western blot); format: in vivo, mouse; settings: 80 mg/kg repeated, p < 0.01 vs PTZ kindling control
Excerpt: However, there are also few reports showing opposite findings.[51],[52] […] No changes in the expression of the nerve growth factor (NGF) were observed (Figure 6D–F).
Figure 6 Changes in mature-BDNF (mBDNF) expression in hippocampus (A) and cortex (C) and in proNGF expression in hippocampus (D) and cortex (F) with representative immunoblots, together with total protein amount visualized by the stain-free technique (B,E). Data are shown as means of relative expressions + SD (n = 8). Statistical significance was evaluated by one-way ANOVA followed by Tukey’s post hoc test: **p < 0.01 (GraphPad Prism 8.4.3).
The Western Blot method was used to assess the expression of proNGF and mBDNF in the mouse brain and hippocampal tissues. Using a bead homogenizer (Bead Ruptor Elite, Omni International, USA), the cortical and hippocampal regions of the mouse brain were weighted and homogenized at a ratio of 9 μL/mg in 2% SDS supplemented with a cocktail of protease (Thermo Scientific, Walthman, MA, USA) and phosphatase inhibitors (Sigma-Aldrich, St. Louis, MO, USA). Samples were then centrifuged at 10,000g for 10 min at 4 °C after being denatured for 10 min at 95 °C. […] One-way ANOVA with Tukey’s post hoc test was utilized to examine changes in the relative expression of the proteins that were evaluated.

HepG2 cell line = experiment: hepatotoxicity, HepG2 cell viability; format: cell-based, human; settings: 25 μM, 72 h of incubation (Figure 11)
Protocol: The hepatotoxicity potential was assessed with the HepG2 cell line and the reference cytostatic drug doxorubicin.
The results are presented as means + SD. Statistical significance was evaluated by one-way ANOVA, followed by Bonferroni’s multiple comparison post hoc test (Graph Pad Prism 8.0.1 software, San Diego, CA, USA): *p < 0.05, ***p < 0.001, ****p < 0.0001 vs negative control (DMSO 1% in growth media).

Compound | melting point [°C] | averaged, maximal-normalized amplitude of voltage-gated sodium currents after application [1] | averaged, maximal-normalized amplitude of voltage-gated sodium currents after wash-out [1] | pain threshold, early phase (3 h after OXPT), % of the initial value/baseline ([2]; 50 mg/kg i.p.) [%] | pain threshold, early phase (3 h after OXPT), % of the initial value/baseline ([2]; 75 mg/kg i.p.) [%] | pain threshold, late phase (7 days after OXPT), % of the baseline ([2]; 75 mg/kg i.p.) [%] | pain threshold, early phase (3 h after OXPT), % of the initial value ([2]; 100 mg/kg i.p.) [%] | pain threshold, late phase (7 days after OXPT), % of the baseline ([2]; 100 mg/kg i.p.) [%] | effect on kindling development ([3]; 20 mg/kg i.p. repeatedly every 24 h) | effect on kindling development ([3]; 40 mg/kg i.p. repeatedly every 24 h) | effect on kindling progression ([3]; 80 mg/kg i.p. repeatedly, p < 0.01 after 19th PTZ injection) | average seizure severity score after the first PTZ injection ([3]; 80 mg/kg, mean ± SD) | average seizure severity score after the last PTZ injection ([3]; 80 mg/kg, mean ± SD) | mBDNF protein expression in the hippocampus (PTZ kindling-induced overexpression) [4] | pain threshold, early phase (3 h after OXPT), % of the baseline ([2]; 25 mg/kg i.p.) [%] | pain threshold, late phase (7 days after OXPT), % of the baseline ([2]; 25 mg/kg i.p.) [%] | pain threshold, late phase (7 days after OXPT), % of the baseline ([2]; 50 mg/kg i.p.) [%] | HepG2 cell viability (HepG2 cell line)
CC(=O)N[C@@H](C(=O)N1CCN(c2cccc(C(F)(F)F)c2)CC1)c1ccccc1 [(R)-31, (R)-N-(2-Oxo-1-phenyl-2-(4-(3-(trifluoromethyl)phenyl)piperazin-1-yl)ethyl)acetamide] | 112.9 to 113.5 | 0.66 ± 0.04 | 0.76 ± 0.05 | 114.5 | 93 | 87 | 78 | 77 | – | – | – | – | – | – | – | – | – | –
CC(=O)N[C@@H](C(=O)N1CCN(c2cccc(OC(F)(F)F)c2)CC1)c1ccccc1 [(R)-32, (R)-N-(2-Oxo-1-phenyl-2-(4-(3-(trifluoromethoxy)phenyl)piperazin-1-yl)ethyl)acetamide] | – | 0.61 ± 0.07 | 0.72 ± 0.08 | 90 | 109 | 108 | – | – | did not significantly affect kindling development | did not significantly affect kindling development | slightly suppressed kindling progression | 0.87 ± 0.35 | 2.65 ± 1.28 | reversed the overexpression | 102 | 68 | 94 | –
CC(=O)N[C@@H](C(=O)N1CCN(c2cccc(SC(F)(F)F)c2)CC1)c1ccccc1 [(R)-33, (R)-N-(2-Oxo-1-phenyl-2-(4-(3-((trifluoromethyl)thio)phenyl)piperazin-1-yl)ethyl)acetamide] | – | – | – | – | – | – | – | – | – | – | – | – | – | – | – | – | – | reduced slightly, but statistically significant cell viability
